The record followed here is US8394952B2 (Vertex Pharmaceuticals Incorporated, priority 2006, dated 2013).

Where only a bound is given, the exact number is not on record here.

The assay deals with Plk1 (Homo sapiens, UniProt P53350). The experiment in a line: biochemical.
Chain of Plk1 (P53350 20-338): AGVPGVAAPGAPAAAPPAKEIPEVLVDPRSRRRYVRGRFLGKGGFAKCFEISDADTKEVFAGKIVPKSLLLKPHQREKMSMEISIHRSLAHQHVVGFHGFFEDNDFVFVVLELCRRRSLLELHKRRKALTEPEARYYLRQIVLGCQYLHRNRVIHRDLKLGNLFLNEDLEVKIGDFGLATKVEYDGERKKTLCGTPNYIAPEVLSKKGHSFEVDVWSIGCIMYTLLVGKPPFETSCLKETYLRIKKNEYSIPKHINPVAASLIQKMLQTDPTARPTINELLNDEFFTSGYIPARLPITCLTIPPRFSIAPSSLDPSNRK
As to `COc1cc(C(=O)NN2CCCC2)ccc1Nc1ncc2c(n1)N(C1CCCC1)CC(C)(C)C(=O)N2C` [Compound I-206, 4-(9-cyclopentyl-5,7,7-trimethyl-6-oxo-6,7,8,9-tetrahydro-5H-pyrimido[4,5-b][1,4]diazepin-2-ylamino)-3-methoxy-N-(pyrrolidin-1-yl)benzamide], the Ki (usually a dissociation constant, usually derived from enzyme kinetics or from competition with a known ligand) was < 10 nM.

Consider `COc1cc(C(=O)Nc2cccnc2)ccc1Nc1ncc2c(n1)N(C1CCCC1)CC(C)(C)C(=O)N2C` [Compound I-207, 4-(9-cyclopentyl-5,7,7-trimethyl-6-oxo-6,7,8,9-tetrahydro-5H-pyrimido[4,5-b][1,4]diazepin-2-ylamino)-3-methoxy-N-(pyridin-3-yl)benzamide], for which the Ki is < 10 nM.

Turning to `COc1cc(C(=O)N2CC(F)(C3CC3)C2)ccc1Nc1ncc2c(n1)N(C1CCCC1)CC(C)(C)C(=O)N2C` [Compound I-208, 9-cyclopentyl-2-(4-(3-cyclopropyl-3-fluoroazetidine-1-carbonyl)-2-methoxyphenylamino)-5,7,7-trimethyl-8,9-dihydro-5H-pyrimido[4,5-b][1,4]diazepin-6(7)-one], the Ki is < 10 nM.

Take `COc1cc(C(=O)N[C@@H]2CCc3ccccc32)ccc1Nc1ncc2c(n1)N(C1CCCC1)CC(C)(C)C(=O)N2C` [Compound I-209, (R)-4-(9-cyclopentyl-5,7,7-trimethyl-6-oxo-6,7,8,9-tetrahydro-5H-pyrimido[4,5-b][1,4]diazepin-2-ylamino)-N-(2,3-dihydro-1H-inden-1yl)-3-methoxy-benzamide]: the inhibitory constant (Ki) was < 10 nM.

`COc1cc(C(=O)NC2CC3CCC2C3)ccc1Nc1ncc2c(n1)N(C1CCCC1)CC(C)(C)C(=O)N2C` (centres unmarked) [Compound I-210, N-(bicyclo[2.2.1]heptan-2-yl)-4-(9-cyclopentyl-5,7,7-trimethyl-6-oxo-6,7,8,9-tetrahydro-5H-pyrimido[4,5-b][1,4]diazepin-2-ylamino)-3-methoxybenzamide]: the Ki is < 10 nM.

Take `COc1cc(C(=O)NCC(C)(C)CO)ccc1Nc1ncc2c(n1)N(C1CCCC1)CC(C)(C)C(=O)N2C` [Compound I-211, 4-(9-cyclopentyl-5,7,7-trimethyl-6-oxo-6,7,8,9-tetrahydro-5H-pyrimido[4,5-b][1,4]diazepin-2-ylamino)-N-(3-hydroxy-2,2-dimethylpropyl)-3-methoxybenzamide]: the inhibition constant Ki is < 10 nM.

Consider `COc1cc(C(=O)NCc2ccncc2)ccc1Nc1ncc2c(n1)N(C1CCCC1)CC(C)(C)C(=O)N2C` [Compound I-212, 4-(9-cyclopentyl-5,7,7-trimethyl-6-oxo-6,7,8,9-tetrahydro-5H-pyrimido[4,5-b][1,4]diazepin-2-ylamino)-3-methoxy-N-(pyridin-4-ylmethyl)benzamide], for which the inhibition constant Ki is < 10 nM.

For `COc1ccc(CNC(=O)c2ccc(Nc3ncc4c(n3)N(C3CCCC3)CC(C)(C)C(=O)N4C)c(OC)c2)cc1` [Compound I-213, 4-(9-cyclopentyl-5,7,7-trimethyl-6-oxo-6,7,8,9-tetrahydro-5H-pyrimido[4,5-b][1,4]diazepin-2-ylamino)-3-methoxy-N-(4-methoxybenzyl)benzamide], the inhibition constant Ki is < 10 nM.

With `COc1cc(C(=O)NCc2ccc(S(C)(=O)=O)cc2)ccc1Nc1ncc2c(n1)N(C1CCCC1)CC(C)(C)C(=O)N2C` [Compound I-214, 4-(9-cyclopentyl-5,7,7-trimethyl-6-oxo-6,7,8,9-tetrahydro-5H-pyrimido[4,5-b][1,4]diazepin-2-ylamino)-3-methoxy-N-(4-(methylsulfonyl)benzyl)benzamide], the Ki is < 10 nM.

The molecule `COc1cc(C(=O)N(C)C)ccc1Nc1ncc2c(n1)N(C1CCCC1)CC(C)(C)C(=O)N2C` [Compound I-215, 4-(9-cyclopentyl-5,7,7-trimethyl-6-oxo-6,7,8,9-tetrahydro-5H-pyrimido[4,5-b][1,4]diazepin-2-ylamino)-3-methoxy-N,N-dimethylbenzamide] gave an inhibition constant (Ki) of 10 to 100 nM.

In the case of `COc1cc(C(=O)NC[C@@H]2CCCC[C@@H]2O)ccc1Nc1ncc2c(n1)N(C1CCCC1)CC(C)(C)C(=O)N2C` [Compound I-216, 4-(9-cyclopentyl-5,7,7-trimethyl-6-oxo-6,7,8,9-tetrahydro-5H-pyrimido[4,5-b][1,4]diazepin-2-ylamino)-N-(((1S,2S)-2-hydroxycyclohexyl)methyl)-3-methoxybenzamide], the Ki was < 10 nM.

Turning to `COC[C@H](C)NC(=O)c1ccc(Nc2ncc3c(n2)N(C2CCCC2)CC(C)(C)C(=O)N3C)c(OC)c1` [Compound I-217, (S)-4-(9-cyclopentyl-5,7,7-trimethyl-6-oxo-6,7,8,9-tetrahydro-5H-pyrimido[4,5-b][1,4]diazepin-2-ylamino)-3-methoxy-N-(1-methoxypropan-2-yl)benzamide], the inhibition constant (Ki) is < 10 nM.

Consider `CCCNC(=O)c1ccc(Nc2ncc3c(n2)N(C2CCCC2)CC(C)(C)C(=O)N3C)c(OC)c1` [Compound I-218, 4-(9-cyclopentyl-5,7,7-trimethyl-6-oxo-6,7,8,9-tetrahydro-5H-pyrimido[4,5-b][1,4]diazepin-2-ylamino)-3-methoxy-N-propylbenzamide], for which the Ki was < 10 nM.

On to `CCNC(=O)c1ccc(Nc2ncc3c(n2)N(C2CCCC2)CC(C)(C)C(=O)N3C)c(OC)c1` [Compound I-219, 4-(9-cyclopentyl-5,7,7-trimethyl-6-oxo-6,7,8,9-tetrahydro-5H-pyrimido[4,5-b][1,4]diazepin-2-ylamino)-N-ethyl-3-methoxybenzamide], for which the inhibition constant Ki was < 10 nM.

In the case of `COc1cc(C(=O)N2CC(OC)C2)ccc1Nc1ncc2c(n1)N(C1CCCC1)CC(C)(C)C(=O)N2C` [Compound I-220, 9-cyclopentyl-2-(2-methoxy-4-(3-methoxyazetidine-1-carbonyl)phenylamino)-5,7,7-trimethyl-8,9-dihydro-5H-pyrimido[4,5-b][1,4]diazepin-6(7H)-one], the Ki was < 10 nM.

As to `COc1cc(C(=O)Nc2ccccn2)ccc1Nc1ncc2c(n1)N(C1CCCC1)CC(C)(C)C(=O)N2C` [Compound I-221, 4-(9-cyclopentyl-5,7,7-trimethyl-6-oxo-6,7,8,9-tetrahydro-5H-pyrimido[4,5-b][1,4]diazepin-2-ylamino)-3-methoxy-N-(pyridin-2-yl)benzamide], the Ki is < 10 nM.

On to `COc1cc(C(=O)Nc2ccncn2)ccc1Nc1ncc2c(n1)N(C1CCCC1)CC(C)(C)C(=O)N2C` [Compound I-222, 4-(9-cyclopentyl-5,7,7-trimethyl-6-oxo-6,7,8,9-tetrahydro-5H-pyrimido[4,5-b][1,4]diazepin-2-ylamino)-3-methoxy-N-(pyrimidin-4-yl)benzamide], for which the Ki is < 10 nM.

For the molecule `COc1cc(C(=O)Nc2nccs2)ccc1Nc1ncc2c(n1)N(C1CCCC1)CC(C)(C)C(=O)N2C` [Compound I-223, 4-(9-cyclopentyl-5,7,7-trimethyl-6-oxo-6,7,8,9-tetrahydro-5H-pyrimido[4,5-b][1,4]diazepin-2-ylamino)-3-methoxy-N-(thiazol-2-yl)benzamide], the inhibitory constant (Ki) is < 10 nM.

Take `COc1cc(C(=O)Nc2cnccn2)ccc1Nc1ncc2c(n1)N(C1CCCC1)CC(C)(C)C(=O)N2C` [Compound I-224, 4-(9-cyclopentyl-5,7,7-trimethyl-6-oxo-6,7,8,9-tetrahydro-5H-pyrimido[4,5-b][1,4]diazepin-2-ylamino)-3-methoxy-N-(pyrazin-2-yl)benzamide]: the Ki was < 10 nM.

`COc1cc(C(=O)N[C@@H]2C[C@H]2c2ccccc2)ccc1Nc1ncc2c(n1)N(C1CCCC1)CC(C)(C)C(=O)N2C` [Compound I-225, 4-(9-cyclopentyl-5,7,7-trimethyl-6-oxo-6,7,8,9-tetrahydro-5H-pyrimido[4,5-b][1,4]diazepin-2-ylamino)-3-methoxy-N-((1R,2S)-2-phenylcyclopropyl)benzamide]: the Ki was < 10 nM.

Turning to `COc1cc(C(=O)N[C@H](C)c2ccccc2)ccc1Nc1ncc2c(n1)N(C1CCCC1)CC(C)(C)C(=O)N2C` [Compound I-226, (R)-4-(9-cyclopentyl-5,7,7-trimethyl-6-oxo-6,7,8,9-tetrahydro-5H-pyrimido[4,5-b][1,4]diazepin-2-ylamino)-3-methoxy-N-(1-phenylethyl)benzamide], the Ki is < 10 nM.

Consider `COc1cc(C(=O)Nc2ccnc(Cl)c2)ccc1Nc1ncc2c(n1)N(C1CCCC1)CC(C)(C)C(=O)N2C` [Compound I-227, N-(2-chloropyridin-4-yl)4-(9-cyclopentyl-5,7,7-trimethyl-6-oxo-6,7,8,9-tetrahydro-5H-pyrimido[4,5-b][1,4]diazepin-2-ylamino)-3-methoxybenzamide], for which the inhibitory constant (Ki) was < 10 nM.

With `COc1cc(C(=O)Nc2cccnc2OC)ccc1Nc1ncc2c(n1)N(C1CCCC1)CC(C)(C)C(=O)N2C` [Compound I-228, 4-(9-cyclopentyl-5,7,7-trimethyl-6-oxo-6,7,8,9-tetrahydro-5H-pyrimido[4,5-b][1,4]diazepin-2-ylamino)-3-methoxy-N-(2-methoxypyridin-3-yl)benzamide], the Ki was < 10 nM.

Regarding `COc1cc(C(=O)NC[C@@H]2CCCC[C@H]2O)ccc1Nc1ncc2c(n1)N(C1CCCC1)CC(C)(C)C(=O)N2C` [Compound I-229, 4-(9-cyclopentyl-5,7,7-trimethyl-6-oxo-6,7,8,9-tetrahydro-5H-pyrimido[4,5-b][1,4]diazepin-2-ylamino)-N-(((1S,2R)-2-hydroxycyclohexyl)methyl)-3-methoxybenzamide], the Ki is < 10 nM.

Take `COc1cc(C(=O)NCC2CCCC2)ccc1Nc1ncc2c(n1)N(C1CCCC1)CC(C)(C)C(=O)N2C` [Compound I-230, 4-(9-cyclopentyl-5,7,7-trimethyl-6-oxo-6,7,8,9-tetrahydro-5H-pyrimido[4,5-b][1,4]diazepin-2-ylamino)-N-(cyclopentylmethyl)-3-methoxybenzamide]: the Ki was < 10 nM.

For `COc1cc(C(=O)Nc2cc(C)[nH]n2)ccc1Nc1ncc2c(n1)N(C1CCCC1)CC(C)(C)C(=O)N2C` [Compound I-231, 4-(9-cyclopentyl-5,7,7-trimethyl-6-oxo-6,7,8,9-tetrahydro-5H-pyrimido[4,5-b][1,4]diazepin-2-ylamino)-3-methoxy-N-(5-methyl-1H-pyrazol-3-yl)benzamide], the Ki was < 10 nM.
